Data set [1] in a line: Inhibition of recombinant mouse GALK1 using ATP as substrate incubated for 1 hr and measured by Kinase-Glo assay. For orientation: Kinase-Glo reads ATP consumption through a luciferase reaction.
Data set [2] in a line: Kinetic aqueous solubility of the compound. Format: physicochemical. The conditions noted are these: buffer; read-out: Kinetic_solubility.
The nature of data set [3]: Stability of compound in rat microsomes assessed as half-life. Format: ADME, Microsome.

Converted amounts (≈) assume the structure as drawn.

A word on the IC50: it is the midpoint of a concentration-inhibition curve. The term half-life denotes the time in which the quantity being followed falls by half. Take `CC1=C(C(=O)Nc2nncs2)C(c2cccnc2Br)N=C(Nc2nc3ccccc3o2)N1` (configuration not stated): in data set [1] (read-out: IC50), the half-inhibitory concentration (IC50) worked out at 19.3 µM. For the same compound, the solubility kinetic in data set [2] is 11.1 µg/mL (≈ 21.7 µM). Moreover, the half-life in data set [3] was above 30 min.

With `CC1=C(C(=O)Nc2cc(C(=O)O)ccn2)C(c2ccccc2Cl)N=C(Nc2nc3ccccc3o2)N1C` (configuration not stated), the half-inhibitory concentration (IC50) in data set [1] (read-out: IC50) amounted to 34.4 µM. For the same compound, in data set [2], the solubility kinetic is above 76 µg/mL. The half-life in data set [3] was above 30 min.

With `CC1=C(C(=O)Nc2cc(CO)ccn2)C(c2ccccc2Cl)N=C(Nc2nc3ccccc3o2)N1` (configuration not stated), the IC50 in data set [1] (read-out: IC50) is 9.68 µM. Also, the solubility kinetic in data set [2] is below 1 µg/mL. Besides, the half-life in data set [3] is above 30 min.

In the case of `CC1=C(C(=O)Nc2cccc(CN)c2)C(c2ccccc2Cl)N=C(Nc2nc3ccccc3o2)N1` (configuration not stated), the 50% inhibitory concentration (IC50) in data set [1] (read-out: IC50) is 6.85 µM. Also, in data set [2], the solubility kinetic was 37.5 µg/mL (≈ 77 µM). The half-life in data set [3] is above 30 min.

Take `COc1ccc(C(=O)O)cc1NC(=O)C1=C(C)NC(Nc2nc3ccc(F)cc3o2)=NC1c1ccccc1Cl` (configuration not stated): in data set [1] (read-out: IC50), the IC50 is 12.2 µM. Further, in data set [2], the solubility kinetic is 53.3 µg/mL (≈ 96.9 µM). Also, the half-life in data set [3] is above 30 min.

Regarding `CC1=C(C(=O)Nc2cc(C(N)=O)ccn2)C(c2ccccc2Cl)N=C(Nc2nc3ccc(F)cc3o2)N1` (configuration not stated), in data set [1] (read-out: IC50), the concentration for half-maximal inhibition (IC50) stood at 19.3 µM. Moreover, the solubility kinetic in data set [2] is 2.4 µg/mL (≈ 4.62 µM). Further, the half-life in data set [3] was above 30 min.

`CC1=C(C(=O)Nc2nncs2)C(c2c(Br)cnn2C)N=C(Nc2nc3ccccc3o2)N1` (configuration not stated): the IC50 result in data set [1] is on record as “Not Active”. Besides, the solubility kinetic in data set [2] was found to be 38.7 µg/mL (≈ 75.2 µM). Further, the half-life in data set [3] is above 30 min.

Regarding `CC1=C(C(=O)NCc2cnn(C)c2)C(c2ccccc2Cl)N=C(Nc2nc3ccccc3o2)N1` (configuration not stated), the IC50 in data set [1] (read-out: IC50) amounted to 12.2 µM. Further, the solubility kinetic in data set [2] stood at 24.2 µg/mL (≈ 50.8 µM). Besides, the half-life in data set [3] amounted to 15.7 min.

Regarding `CC1=C(C(=O)Nc2nncs2)C(c2ncccc2Cl)N=C(Nc2nc3ccccc3o2)N1` (configuration not stated), the half-inhibitory concentration (IC50) in data set [1] (read-out: IC50) was 19.3 µM. The solubility kinetic in data set [2] worked out at 10.6 µg/mL (≈ 22.7 µM). Besides, the half-life in data set [3] is above 30 min.

As for `CC1=C(C(=O)NCc2cnn(C)c2C)C(c2ccc(C)cc2Cl)N=C(Nc2nc3ccc(F)cc3o2)N1` (configuration not stated), the concentration for half-maximal inhibition (IC50) in data set [1] (read-out: IC50) came to 3.43 µM. The solubility kinetic in data set [2] is below 1 µg/mL. Further, in data set [3], the half-life was determined as 2.99 min.

In the case of `COC(=O)c1ccc(CNC(=O)C2=C(C)NC(Nc3nc4ccccc4o3)=NC2c2ccccc2Cl)cc1` (configuration not stated), in data set [1] (read-out: IC50), the half-inhibitory concentration (IC50) was 8.63 µM. In data set [2], the solubility kinetic is below 1 µg/mL. In addition, the half-life in data set [3] came to 8.49 min.

Regarding `CNC(=O)C1CC(=O)C2=C(C1)NC(Nc1nc3ccccc3o1)=NC2c1ccccc1Cl` (configuration not stated), in data set [1] (read-out: IC50), the IC50 was 6.85 µM. For the same compound, the solubility kinetic in data set [2] is below 1 µg/mL. Besides, the half-life in data set [3] was above 30 min.

For the compound `CC1=C(C(=O)NCc2cnn(C)c2)C(c2ccc(Cl)cc2Cl)N=C(Nc2nc3ccc(F)c(N)c3o2)N1` (configuration not stated), in data set [1] (read-out: IC50), the half-inhibitory concentration (IC50) was determined as 1.93 µM. For the same compound, the solubility kinetic in data set [2] is 5.9 µg/mL (≈ 10.9 µM). For the same compound, in data set [3], the half-life was above 30 min.

As for `CC1=C(C(=O)NCc2cnn(C)c2)C(c2ccc(C)cc2Cl)N=C(Nc2nc3ncccc3o2)N1` (configuration not stated), the IC50 entry in data set [1] is listed as “Not Active”. The solubility kinetic in data set [2] is above 49 µg/mL. The half-life in data set [3] turned out to be 6.15 min.

As for `CC1=C(C(=O)Nc2ccc(CN3CCOCC3)cc2)C(c2ccccc2Cl)N=C(Nc2nc3ccccc3o2)N1` (configuration not stated), the half-inhibitory concentration (IC50) in data set [1] (read-out: IC50) stood at 9.68 µM. Further, the solubility kinetic in data set [2] was below 1 µg/mL. Moreover, in data set [3], the half-life stood at 22.3 min.

Take `CC1=C(C(=O)Nc2nc(CO)cs2)C(c2ccccc2Cl)N=C(Nc2nc3ccccc3o2)N1` (configuration not stated): the IC50 in data set [1] (read-out: IC50) came to 19.3 µM. Moreover, in data set [2], the solubility kinetic is below 1 µg/mL. Besides, the half-life in data set [3] was above 30 min.

With `CC1=C(C(=O)Nc2ncc(CO)s2)C(c2ccccc2Cl)N=C(Nc2nc3ccccc3o2)N1` (configuration not stated), the half-inhibitory concentration (IC50) in data set [1] (read-out: IC50) was 19.3 µM. Moreover, in data set [2], the solubility kinetic was below 1 µg/mL. The half-life in data set [3] is above 30 min.

Take `COC(=O)c1ccnc(NC(=O)C2=C(C)NC(Nc3nc4ccccc4o3)=N[C@H]2c2ccccc2Cl)c1`: the IC50 in data set [1] (read-out: IC50) is 6.85 µM. The solubility kinetic in data set [2] was below 1 µg/mL. Besides, the half-life in data set [3] came out at 20 min.

For the compound `COc1ccc(C2N=C(Nc3nc4cccc(N)c4o3)NC(C)=C2C(=O)Nc2cc(C(=O)O)ccn2)c(Cl)c1` (racemic), in data set [1] (read-out: IC50), the half-inhibitory concentration (IC50) was above 1.93 µM. Moreover, the solubility kinetic in data set [2] was above 81 µg/mL. The half-life in data set [3] is above 30 min.

`CC1=C(C(=O)Nc2cc(C(=O)O)ccn2)C(c2ccc(N3CCOCC3)cc2Cl)N=C(Nc2nc3ccc(F)cc3o2)N1` (configuration not stated): in data set [1] (read-out: IC50), the IC50 came out at 3.85 µM. For the same compound, the solubility kinetic in data set [2] is above 89 µg/mL. Also, the half-life in data set [3] is above 30 min.

As for `CC1=C(C(=O)NCc2ccc(CO)cc2)C(c2ccccc2Cl)N=C(Nc2nc3ccccc3o2)N1` (configuration not stated), the IC50 in data set [1] (read-out: IC50) is 15.3 µM. Also, the solubility kinetic in data set [2] was below 1 µg/mL. Besides, the half-life in data set [3] amounted to 13.8 min.

As for `CC1=C(C(=O)Nc2cc(N(C)C)ccn2)C(c2ccc(C)cc2Cl)N=C(Nc2nc3cccc(N)c3o2)N1` (configuration not stated), in data set [1] (read-out: IC50), the IC50 came out at 15.3 µM. Moreover, in data set [2], the solubility kinetic was found to be 4.6 µg/mL (≈ 8.66 µM). Also, the half-life in data set [3] is 11.7 min.

Take `CC1=C(C(=O)Nc2cc(CO)ccn2)C(c2ccccc2Cl)N=C(Nc2nc3ccc(F)cc3o2)N1` (configuration not stated): in data set [1] (read-out: IC50), the half-inhibitory concentration (IC50) came to 10.9 µM. Also, the solubility kinetic in data set [2] was below 1 µg/mL. The half-life in data set [3] is above 30 min.

With `CC1=C(C(=O)Nc2nncs2)C(c2ccncc2Br)N=C(Nc2nc3ccccc3o2)N1` (configuration not stated), the half-maximal inhibitory concentration (IC50) in data set [1] (read-out: IC50) was determined as 19.3 µM. Also, the solubility kinetic in data set [2] was 6.5 µg/mL (≈ 12.7 µM). The half-life in data set [3] is above 30 min.

With `CC1=C(C(=O)Nc2nncs2)C2(CCSCC2)N=C(Nc2nc3ccccc3o2)N1`, the 50% inhibitory concentration (IC50) in data set [1] (read-out: IC50) was found to be 24.3 µM. The solubility kinetic in data set [2] amounted to 3.5 µg/mL (≈ 7.93 µM). For the same compound, the half-life in data set [3] is above 30 min.

Turning to `COC(=O)c1cc(NC(=O)C2=C(C)NC(Nc3nc4ccccc4o3)=NC2c2ccccc2Cl)ccn1` (configuration not stated), the half-maximal inhibitory concentration (IC50) in data set [1] (read-out: IC50) was determined as 10.9 µM. In addition, the solubility kinetic in data set [2] is below 1 µg/mL. The half-life in data set [3] is above 30 min.

In the case of `CC1=C(C(=O)Nc2ccccn2)C(c2ccccc2Cl)N=C(Nc2nc3ccccc3o2)N1` (configuration not stated), in data set [1] (read-out: IC50), the IC50 is 10.9 µM. Also, in data set [2], the solubility kinetic is below 1 µg/mL. Also, the half-life in data set [3] is above 30 min.

With `CC1=C(C(=O)Nc2ccccc2O)C(c2ccccc2Cl)N=C(Nc2nc3ccccc3o2)N1` (configuration not stated), the IC50 in data set [1] (read-out: IC50) was 17.2 µM. For the same compound, the solubility kinetic in data set [2] is below 1 µg/mL. Besides, the half-life in data set [3] was determined as 17.9 min.

`CC1=C(C(=O)NCc2cnn(C)c2)C(c2ccc(C)cc2Cl)N=C(Nc2nc3cccnc3o2)N1` (configuration not stated): in data set [1], the IC50 result is recorded as “Not Active”. Moreover, the solubility kinetic in data set [2] is 4.8 µg/mL (≈ 9.78 µM). Further, the half-life in data set [3] stood at 3.66 min.

In the case of `COC(=O)Cc1ccc(NC(=O)C2=C(C)NC(Nc3nc4ccccc4o3)=NC2c2ccccc2Cl)cc1` (configuration not stated), in data set [1] (read-out: IC50), the IC50 was determined as 12.2 µM. Moreover, the solubility kinetic in data set [2] is below 1 µg/mL. Further, the half-life in data set [3] was found to be 7.46 min.

For the compound `CC1=C(C(=O)Nc2ccc(N(C)C)cc2)C(c2ccccc2Cl)N=C(Nc2nc3ccccc3o2)N1` (configuration not stated), the 50% inhibitory concentration (IC50) in data set [1] (read-out: IC50) stood at 13.7 µM. Besides, in data set [2], the solubility kinetic is below 1 µg/mL. In addition, in data set [3], the half-life is 11.5 min.

In the case of `CC1=C(C(=O)NCc2cccc(CO)c2)C(c2ccccc2Cl)N=C(Nc2nc3ccccc3o2)N1` (configuration not stated), the 50% inhibitory concentration (IC50) in data set [1] (read-out: IC50) is 12.2 µM. For the same compound, the solubility kinetic in data set [2] is below 1 µg/mL. For the same compound, in data set [3], the half-life stood at 6.57 min.

Take `CC1=C(C(=O)Nc2nncs2)C2(CCOC2)N=C(Nc2nc3ccccc3o2)N1` (configuration not stated): the IC50 result in data set [1] is listed as “Not Active”. For the same compound, in data set [2], the solubility kinetic is 37.9 µg/mL (≈ 92.1 µM). In addition, the half-life in data set [3] is above 30 min.

As for `CCn1cc(CNC(=O)C2=C(C)NC(Nc3nc4ccc(F)c(N)c4o3)=NC2c2ccc(Cl)cc2Cl)cn1` (configuration not stated), the 50% inhibitory concentration (IC50) in data set [1] (read-out: IC50) worked out at 1.93 µM. Further, the solubility kinetic in data set [2] was below 1 µg/mL. Further, the half-life in data set [3] was 6.79 min.

(Values after ChEMBL document CHEMBL5050861 (2021).)
